Usually EC50 stands for the concentration that produces a half-maximal response.

From patent US20220153732A1, “PROTEIN SECRETION INHIBITORS” (KEZAR LIFE SCIENCES, priority 2019, published 2022) come the findings set out here.

Where two headings read alike, the source gives them in different places. Some results are limits rather than exact numbers.

Type in all cases: cell-based
In experiment [1] the test system is PD1-ss+10aa/Gaussia Luciferase. Description: Dox-Induced PD1-ss-Gluc Assay. The following applies: 293FRT/TO cells, read-out: 24 hr Dox Inducible PD1ssGluc 293FRT/TO: Mean IC50. In short, it runs like this: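 Compounds, diluted in DMSO/media with doxycycline, were added to cells plated a day earlier and kept at 37° C under 5% CO2. The cells stably express a Gaussia luciferase construct fused to PD1-ss+10aa, induced via the T-REx system. Unassigned stereochemistry means mixture data.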

Experiment [2] concerns TNFα-FL/Gaussia Luciferase. Description: Dox Induced TNFα-FL-Gluc Assay. The following applies: 293FRT/TO cells, read-out: 24 hr Dox Inducible TNFaFLGluc 293FRT/TO: Mean IC50. In a few lines: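 Compounds were added in doxycycline-containing DMSO/media to cells plated the previous day and incubated at 37° C under 5% CO2. These cells stably express a TNFα-FL/Gaussia luciferase cDNA whose expression is under T-REx (Dox-inducible) control, selected with Hygromycin and Blasticidin.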

Experiment [3] concerns human multiple myeloma cell line U266B1. The experiment in a line: U266 Cell Viability Assay. The following applies: U-266, 48 hr, U266B1 cells, Celltiter-Glo, read-out: 48 hr U266 Viability Celltiter-Glo: Mean EC50. In a few lines:
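Viability measured by CellTiter-Glo luciferase signal after 48 h compound exposure (37 °C, 5% CO2) of U266B1 cells in 384-well format. Where stereochemistry is not shown, data refer to the stereoisomer mixture.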
Background: ATP-based viability assays read luminescence as a measure of living cells.

Experiment [4] concerns IL-2-FL/Gaussia Luciferase. Description: Dox Induced IL2-FL-Gluc Assay. Conditions: 293FRT/TO cells, read-out: 24 hr Dox Inducible IL2FLGIuc 293FRT/TO: Mean IC50. In short, it runs like this: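 Compounds were added together with doxycycline in DMSO/media and incubated at 37° C., 5% CO2. The cells were a stably selected line carrying IL-2-FL/Gaussia luciferase under T-REx inducible control. Structures drawn without stereochemistry were tested as stereoisomer mixtures.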

Experiment [5] relates to human multiple myeloma cell line NCI-H929. The experiment in a line: H929 Cell Viability Assay. The following applies: 48 hr, NCI-H929 cells, Celltiter-Glo, read-out: 48 hr H929 Viability Celltiter-Glo: Mean EC50. Here is the method: Plates were incubated at 37° C., 5% CO2 for 48 hours. After 48 hours, Celltiter-Glo® (Promega) was added to each well and luciferase signal was quantified using Tecan Infinite M1000 Pro for cell viability determination.
For chemical structures that include one or more stereoisomers, but are illustrated without indicating stereochemistry, the assay data refers to a mixture of stereoisomers.

The subject of experiment [6] is HER3-ss+4aa/Gaussia Luciferase. Description: Dox-Induced Her3-ss-Gluc Assay. The following applies: 293FRT/TO cells, read-out: 24 hr Dox Inducible Her3(ss + 4)Gluc 293FRT/TO: Mean IC50. In short, it runs like this: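 Compounds, diluted in DMSO/media containing doxycycline, were incubated at 37° C., 5% CO2 with cells seeded one day earlier. The cells stably express HER3-ss+4aa/Gaussia luciferase under T-REx control. Where no stereochemistry is shown, data refer to the mixture of stereoisomers.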

Setting [7] is: 24 hr doxycycline induction, Gaussia luciferase signal.

With `O=C(Nc1nc2ccccc2s1)c1cccn1Cc1ccncc1` [Compound A50, N-(benzo[d]thiazol-2-yl)-1-(pyridin-4-ylmethyl)-1H-pyrrole-2-carboxamide], the IC50 was 1290 nM in experiment [1] (setting [7]), above 25000 nM in experiment [2] (setting [7]), 1450 nM in experiment [4] (setting [7]) and 2930 nM in experiment [6] (setting [7]). The EC50 in experiment [3] and in experiment [5] was above 25000 nM each time.

Regarding `O=C(Nc1nc([C@H]2CCCN2c2ccccn2)cs1)c1cccn1Cc1ccncc1` [Compound A317], the IC50 was found to be 25 nM in experiment [1] (24 hr, doxycycline-induced); 427 nM in experiment [2] (24 hr, doxycycline-induced); 57 nM in experiment [4] (24 hr, doxycycline-induced); 64 nM in experiment [6] (24 hr, doxycycline-induced). Besides, the EC50 was above 25000 nM in experiment [3] and 2540 nM in experiment [5].

Take `CC(C)OC(C)(C)c1csc(NC(=O)c2cccn2[C@H](C)c2ccncc2)n1` [Compound A49, (R)-N-(4-(2-isopropoxypropan-2-yl)thiazol-2-yl)-1-(1-(pyridin-4-yl)ethyl)-1H-pyrrole-2-carboxamide]: the IC50 stood at 1210 nM in experiment [1] (setting [7]), 23600 nM in experiment [2] (setting [7]), 1890 nM in experiment [4] (setting [7]) and 2580 nM in experiment [6] (setting [7]). For the same compound, the EC50 in experiment [3] and in experiment [5] was above 25000 nM in each case.

With `CC(C)OC(C)c1csc(NC(=O)c2cccn2Cc2ccncc2)n1` (stereo not drawn) [Compound A28, N-(4-(1-isopropoxyethyl)thiazol-2-yl)-1-(pyridin-4-ylmethyl)-1H-pyrrole-2-carboxamide], the IC50 was found to be 462 nM in experiment [1] (setting [7]), 3950 nM in experiment [2] (setting [7]), 401 nM in experiment [4] (setting [7]) and 752 nM in experiment [6] (setting [7]). The EC50 in experiment [3] and in experiment [5] was above 25000 nM throughout.

On to `O=C(Nc1nc(C2CCN(c3ccccc3)CC2)cs1)c1cccn1Cc1ccncc1` [Compound A282], for which the IC50 in experiment [1] (setting [7]) was 324 nM; in experiment [2] (setting [7]) it was 4660 nM; in experiment [4] (setting [7]), 1500 nM; in experiment [6] (setting [7]), 864 nM. The concentration for a half-maximal effect (EC50) in experiment [3] was determined as 12500 nM; in experiment [5], 7080 nM.

On to `O=C(Nc1nc([C@H]2CCCN2Cc2ccccc2)cs1)c1cccn1Cc1ccncc1` [Compound A278], for which the IC50 in experiment [1] (setting [7]) was 538 nM; in experiment [2] (setting [7]), 5000 nM; in experiment [4] (setting [7]), 1270 nM; in experiment [6] (setting [7]), 1130 nM. Besides, the results for the EC50 in experiment [3] and in experiment [5] were above 25000 nM and above 23900 nM, respectively.

Take `CCc1sc(NC(=O)c2cccn2Cc2ccncc2)nc1C` [Compound A43]: the IC50 in experiment [1] (setting [7]) is 942 nM; in experiment [2] (setting [7]) it was above 25000 nM; in experiment [4] (setting [7]) it was 2670 nM; in experiment [6] (setting [7]), 2210 nM. Also, the 50% effective concentration (EC50) in experiment [3] and in experiment [5] was above 25000 nM each time.

In the case of `O=C(Nc1nc(C2CN(c3ccccc3)C2)cs1)c1cccn1Cc1ccncc1` [Compound A316], the IC50 in experiment [1] (24 hr, doxycycline-induced) amounted to 117 nM; in experiment [2] (24 hr, doxycycline-induced) it was 3170 nM; in experiment [4] (24 hr, doxycycline-induced), 762 nM; in experiment [6] (24 hr, doxycycline-induced), 313 nM. The EC50 in experiment [3] and in experiment [5] was above 25000 nM throughout.

Turning to `O=C(Nc1nc([C@H]2CCCN2c2ccc3c(c2)OC(F)(F)O3)cs1)c1cccn1Cc1ccncc1` [Compound A328], the IC50 in experiment [1] (24 hr, doxycycline-induced) is 9 nM; in experiment [2] (24 hr, doxycycline-induced) it was 105 nM; in experiment [4] (24 hr, doxycycline-induced), 14 nM; in experiment [6] (24 hr, doxycycline-induced), 12 nM. Besides, the half-maximal effective concentration (EC50) in experiment [3] was 16500 nM; in experiment [5], 381 nM.

As to `O=C(Nc1nc(C2CCc3ccccc3O2)cs1)c1cccn1CCCc1ccncc1` (stereo not drawn) [Compound A286], the IC50 in experiment [1] (setting [7]) was found to be 1280 nM; in experiment [2] (setting [7]), 6170 nM; in experiment [4] (setting [7]), 3930 nM; in experiment [6] (setting [7]), 2420 nM. For the same compound, the EC50 in experiment [3] was determined as 15700 nM; in experiment [5], 9570 nM.

Consider `CC(=O)Nc1ccc(/C=C/c2csc(NC(=O)c3cccn3Cc3ccncc3)n2)cc1` [Compound A223, N-(4-(4-acetamidostyryl)thiazol-2-yl)-1-(pyridin-4-ylmethyl)-1H-pyrrole-2-carboxamide], for which the IC50 in experiment [1] (setting [7]) is 513 nM; in experiment [2] (setting [7]), above 25000 nM; in experiment [4] (setting [7]), 8040 nM; in experiment [6] (setting [7]), 3120 nM. Besides, the EC50 in experiment [3] was above 25000 nM; in experiment [5], 22300 nM.
